According to patent US20250375465A1, “METHODS FOR AFFECTING TISSUE-RESIDENT T CELLS” (THE TRUSTEES OF THE UNIVERSITY OF PENNSYLVANIA, priority 2024, published 2025):
Entries after “also recorded” stand apart in the source; their conditions may differ.

Key:
[1] = tested on: TRM isolated from healthy human skin; experiment: Viability of skin TRM versus blood T cells after GSPT1 degrader treatment (FIG. 10D); type: cell-based; conditions: 72 hours of treatment, n=6
Experimental: (§1) Given that GSPT1-degrading small-molecules are already advancing through early-phase trials for cancer, it was tested whether targeting GSPT1 could selectively affect TRM in vitro. TRM were isolated from healthy human skin (n=6) and their sensitivity was to the GSPT1-degrading drug CC-90009 with that of human blood T cells. […] In a similar study, another small molecule GSPT1 degrader, MRT-2359, was used to treat peripheral blood T cells from normal human donors for 24 hours in vitro at various concentrations.

primary leukemia cells = conditions: FIG. 6B; data extracted from J Clin Invest. 2022; 132 (16): e153514; cited from earlier work
[2] = tested on: acute myeloid leukemia (AML) cells; conditions: FIG. 6A; data extracted from J Clin Invest. 2022; 132 (16): e153514; cited from earlier work
GSPT1 = biological target: T1, GSPT1 (Homo sapiens, UniProt P15170+Q96SW2); experiment: Western blot of GSPT1 protein in primary human T cells after degrader treatment (FIGS. 13A-13B); type: cell-based; conditions: primary human peripheral blood T cells, 24 hours in vitro, compared to DMSO control
T1 construct: GSPT1 protein in primary human T cells isolated from peripheral blood; endogenous in cells; host or cells: primary human T cells from peripheral blood of normal donors
T1 sequence (P15170 whole entry): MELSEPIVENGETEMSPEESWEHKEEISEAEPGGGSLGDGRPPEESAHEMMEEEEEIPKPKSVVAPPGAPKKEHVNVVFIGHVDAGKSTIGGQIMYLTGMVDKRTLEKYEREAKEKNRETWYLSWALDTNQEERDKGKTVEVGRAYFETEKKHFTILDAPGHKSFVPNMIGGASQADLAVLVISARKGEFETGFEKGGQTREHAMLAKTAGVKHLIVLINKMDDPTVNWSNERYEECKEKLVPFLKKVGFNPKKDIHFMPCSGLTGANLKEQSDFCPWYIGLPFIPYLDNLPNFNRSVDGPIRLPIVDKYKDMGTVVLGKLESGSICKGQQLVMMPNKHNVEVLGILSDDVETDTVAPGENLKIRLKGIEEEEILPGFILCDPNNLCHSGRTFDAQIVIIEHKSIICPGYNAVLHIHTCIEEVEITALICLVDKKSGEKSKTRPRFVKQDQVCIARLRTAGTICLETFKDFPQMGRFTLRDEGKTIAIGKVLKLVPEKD
T1 sequence (Q96SW2 whole entry): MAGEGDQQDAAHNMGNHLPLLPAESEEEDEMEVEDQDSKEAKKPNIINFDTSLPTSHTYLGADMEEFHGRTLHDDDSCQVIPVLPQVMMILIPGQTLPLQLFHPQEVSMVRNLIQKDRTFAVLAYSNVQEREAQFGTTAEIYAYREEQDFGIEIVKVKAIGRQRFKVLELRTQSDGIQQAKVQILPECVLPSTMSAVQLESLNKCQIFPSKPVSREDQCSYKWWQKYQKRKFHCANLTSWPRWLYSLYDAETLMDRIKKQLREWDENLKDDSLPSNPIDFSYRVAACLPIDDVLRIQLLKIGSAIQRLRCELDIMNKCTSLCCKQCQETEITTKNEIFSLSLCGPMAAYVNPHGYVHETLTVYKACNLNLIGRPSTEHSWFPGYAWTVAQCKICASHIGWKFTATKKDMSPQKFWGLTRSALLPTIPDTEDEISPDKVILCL
T1 sequence (Q16531 whole entry partner): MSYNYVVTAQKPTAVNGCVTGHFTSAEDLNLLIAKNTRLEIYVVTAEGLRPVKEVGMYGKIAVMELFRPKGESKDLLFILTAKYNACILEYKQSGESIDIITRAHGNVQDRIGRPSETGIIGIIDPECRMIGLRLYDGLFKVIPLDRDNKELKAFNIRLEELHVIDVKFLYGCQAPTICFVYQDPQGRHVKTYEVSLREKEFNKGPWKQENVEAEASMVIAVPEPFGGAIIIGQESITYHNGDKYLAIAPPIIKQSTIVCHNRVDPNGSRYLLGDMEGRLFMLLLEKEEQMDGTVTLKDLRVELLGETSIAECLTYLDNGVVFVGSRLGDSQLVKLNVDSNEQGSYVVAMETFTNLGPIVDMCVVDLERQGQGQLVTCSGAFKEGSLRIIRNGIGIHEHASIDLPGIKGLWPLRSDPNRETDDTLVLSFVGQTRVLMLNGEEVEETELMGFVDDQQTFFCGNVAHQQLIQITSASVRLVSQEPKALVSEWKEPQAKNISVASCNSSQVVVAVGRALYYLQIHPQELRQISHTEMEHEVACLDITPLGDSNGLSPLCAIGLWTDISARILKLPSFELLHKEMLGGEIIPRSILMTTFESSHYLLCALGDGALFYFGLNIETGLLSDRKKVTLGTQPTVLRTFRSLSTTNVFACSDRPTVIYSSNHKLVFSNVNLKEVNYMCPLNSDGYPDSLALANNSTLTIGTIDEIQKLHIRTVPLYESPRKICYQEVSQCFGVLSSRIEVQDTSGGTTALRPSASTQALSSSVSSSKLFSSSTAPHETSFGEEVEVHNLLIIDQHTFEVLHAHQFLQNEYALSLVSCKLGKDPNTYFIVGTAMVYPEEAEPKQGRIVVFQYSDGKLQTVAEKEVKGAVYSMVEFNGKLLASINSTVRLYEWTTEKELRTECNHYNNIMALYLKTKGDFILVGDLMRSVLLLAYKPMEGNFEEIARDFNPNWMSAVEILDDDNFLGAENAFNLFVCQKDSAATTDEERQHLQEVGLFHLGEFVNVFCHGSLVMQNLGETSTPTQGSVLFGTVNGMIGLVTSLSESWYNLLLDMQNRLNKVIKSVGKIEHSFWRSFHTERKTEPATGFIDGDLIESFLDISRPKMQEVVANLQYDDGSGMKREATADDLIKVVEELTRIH
Experimental: FIGS. 13A-13B illustrate degradation of GSPT1 in primary human T cells using CC-90009 and MRT-2359. FIG. 13A is a Western blot analysis of GSPT1 protein in primary human T cells isolated from peripheral blood. T cells were treated with indicated concentrations of GSPT1 degrader for 24 hours in vitro. GSPT1 protein was detected with a monoclonal anti-GSPT1 antibody. FIG. 13B is a graph quantifying GSPT1 protein remaining after degrader treatment as shown in FIG. 13A compared to a DMSO negative control.
as §1

primary human T cells = experiment: Kill curve in primary human (circulating) T cells, celltiter glow viability assay (FIG. 6C); type: cell-based; conditions: for apoptosis / killing of primary human T cells: FIG. 6C, 3 days incubation
Experimental: (Data extracted from J Clin Invest. 2022; 132 (16): e153514). FIG. 6C: in contrast to the AML cells, circulating T cells required about 100-fold higher dose of the GSPT-1 degrader to be depleted. The GSPT-1 degrader used in FIG. 6C is C90009, the same drug as in FIGS. 6A-6B. Blue curve: kill curve with MRT-2359. Primary human T cells were incubated with indicated doses for 3 days followed by viability quantification using a standard celltiter glow assay. Survival was quantified relative to T cells from the same donor treated with DMSO.

For O=C1CCC(N2Cc3cc(CNC(=O)C(F)(F)c4ccc(Cl)cc4)ccc3C2=O)C(=O)N1 (stereo not drawn) [CC-90009], the “viability of skin TRM compared with circulating T cells” value [1] is given as “reduced viability”, the “depletion / apoptosis of primary leukemia cells” value (primary leukemia cells) is given as “dose-dependent apoptosis; also recorded: dose-dependent depletion” and the “depletion / apoptosis of AML cells” value [2] is given as “dose-dependent apoptosis; also recorded: dose-dependent depletion”. For the same compound, the “GSPT1 protein remaining after degrader treatment” value (GSPT1) was “significant dose-dependent loss of GSPT1 protein; also recorded: dose-dependent downregulation of GSPT1 protein”, the “dosage required for same level of apoptosis in primary (circulating) T cells versus cells of FIGS. 6A-6B” value (primary human T cells; FIG. 6C versus FIGS. 6A-6B) was “dramatically increased” and the “apoptosis / killing of primary human T cells” value (primary human T cells) was “does apoptosis”. For the same compound, the “dose required to deplete circulating T cells relative to AML cells” value (primary human T cells; primary human T cells incubated 3 days, survival relative to DMSO, compared with FIGS. 6A-6B) was “about 100 fold”.

In the case of O=C1CCC(N2Cc3ccc(COC(=O)Nc4cc(OC(F)(F)F)ccc4F)cc3C2=O)C(=O)N1 (stereo not drawn) [MRT-2359], the “GSPT1 protein remaining after degrader treatment” value (GSPT1) is reported as “significant dose-dependent loss of GSPT1 protein; also recorded: dose-dependent downregulation of GSPT1 protein” and the “apoptosis / killing of primary human T cells” value (primary human T cells) is reported as “does apoptosis”.
